Measured values from the Kinase Knowledgebase extract (Sharma et al. 2016).

Target: PIK3CA (human) (UniProt P42336)
Test: Assessment of PIK3CA Kinase Activity Using Homogenous Solution Phase Assay

PIK3CA (human), sequence (P42336 whole entry, looked up): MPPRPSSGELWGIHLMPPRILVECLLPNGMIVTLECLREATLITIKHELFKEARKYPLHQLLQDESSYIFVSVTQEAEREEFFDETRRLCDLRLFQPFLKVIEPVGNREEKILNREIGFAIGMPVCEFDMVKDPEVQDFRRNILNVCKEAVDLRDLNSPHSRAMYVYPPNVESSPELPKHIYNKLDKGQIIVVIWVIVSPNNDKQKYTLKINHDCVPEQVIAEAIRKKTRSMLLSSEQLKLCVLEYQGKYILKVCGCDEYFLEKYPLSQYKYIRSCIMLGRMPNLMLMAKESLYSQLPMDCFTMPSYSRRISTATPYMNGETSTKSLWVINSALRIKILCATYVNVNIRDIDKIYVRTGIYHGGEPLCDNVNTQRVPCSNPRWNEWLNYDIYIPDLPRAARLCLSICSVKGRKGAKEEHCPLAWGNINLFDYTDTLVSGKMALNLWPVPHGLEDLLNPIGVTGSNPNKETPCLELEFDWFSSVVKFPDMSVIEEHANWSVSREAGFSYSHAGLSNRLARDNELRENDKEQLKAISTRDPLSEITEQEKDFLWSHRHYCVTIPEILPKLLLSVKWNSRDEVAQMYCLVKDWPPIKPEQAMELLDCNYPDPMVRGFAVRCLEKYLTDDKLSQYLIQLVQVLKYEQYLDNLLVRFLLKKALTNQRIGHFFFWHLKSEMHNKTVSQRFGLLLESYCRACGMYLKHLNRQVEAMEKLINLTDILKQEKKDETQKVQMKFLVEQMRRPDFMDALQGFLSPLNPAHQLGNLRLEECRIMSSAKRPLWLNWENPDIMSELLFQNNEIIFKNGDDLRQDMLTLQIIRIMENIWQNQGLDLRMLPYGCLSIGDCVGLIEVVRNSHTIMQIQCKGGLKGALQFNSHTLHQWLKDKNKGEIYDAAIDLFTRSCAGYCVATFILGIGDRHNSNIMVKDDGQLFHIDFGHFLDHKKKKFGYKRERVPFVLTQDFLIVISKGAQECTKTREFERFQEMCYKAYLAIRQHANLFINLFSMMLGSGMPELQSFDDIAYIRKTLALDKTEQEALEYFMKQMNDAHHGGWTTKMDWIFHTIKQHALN

IC50 | SMILES
< 20 µM | Oc1cccc(-c2cc(NCCc3ccncc3)nc(N3CCOCC3)n2)c1
< 20 µM | O=[N+]([O-])c1ccc(N2CCN(c3cc(-c4cccc(O)c4)nc(N4CCOCC4)n3)CC2)cc1
< 20 µM | CS(=O)(=O)Nc1cccc(-c2cc(Nc3cccnc3)nc(N3CCOCC3)n2)c1
< 20 µM | Oc1ccc(F)c(-c2cc(Nc3cccnc3)nc(N3CCOCC3)n2)c1
< 20 µM | COc1cccc(-c2cc(N3CCOCC3)nc(N3CCOCC3)n2)c1
< 20 µM | Nc1cccc(-c2cc(Nc3cccnc3)nc(N3CCOCC3)n2)c1
< 20 µM | COCCNc1cc(-c2cccc(O)c2)nc(N2CCOCC2)n1
< 20 µM | Oc1cccc(-c2cc(N3CCN(c4ccccn4)CC3)nc(N3CCOCC3)n2)c1
< 20 µM | Oc1cccc(-c2cc(NCc3ccccn3)nc(N3CCOCC3)n2)c1
< 20 µM | CCOc1ccc(NC(C)=O)cc1Nc1cc(-c2cccc(O)c2)nc(N2CCOCC2)n1
< 20 µM | Oc1cccc(-c2cc(Nc3ncccn3)nc(N3CCOCC3)n2)c1
< 20 µM | CC(C)(C)C(=O)Oc1cccc(-c2cc(Nc3cccnc3)nc(N3CCOCC3)n2)c1
< 20 µM | Oc1cccc(-c2cc(Nc3cccnc3)nc(N3CCOCC3)n2)c1F
< 20 µM | Oc1cccc(-c2cc(NCc3ccncc3)nc(N3CCOCC3)n2)c1
< 20 µM | C[C@@H]1COC[C@H](C)N1c1cc(-c2cccc(O)c2)nc(N2CCOCC2)n1
< 20 µM | CC(=O)Oc1cccc(-c2cc(Nc3cccnc3)nc(N3CCOCC3)n2)c1
< 20 µM | COc1cccc(N2CCN(c3cc(-c4cccc(O)c4)nc(N4CCOCC4)n3)CC2)c1
< 20 µM | Oc1ccc(Br)c(-c2cc(Nc3cccnc3)nc(N3CCOCC3)n2)c1
< 20 µM | CC(C)C(N)C(=O)Oc1cccc(-c2cc(Nc3cccnc3)nc(N3CCOCC3)n2)c1 (stereo not given)
< 20 µM | CC(C)C(=O)Oc1cccc(-c2cc(Nc3cccnc3)nc(N3CCOCC3)n2)c1
< 20 µM | c1cc(OCCN2CCCCC2)cc(-c2cc(Nc3ccc4[nH]ncc4c3)nc(N3CCOCC3)n2)c1
< 20 µM | CCCC(=O)Oc1cccc(-c2cc(Nc3cccnc3)nc(N3CCOCC3)n2)c1
< 20 µM | COC(=O)Oc1cccc(-c2cc(Nc3cccnc3)nc(N3CCOCC3)n2)c1
< 20 µM | Oc1cccc(-c2cc(Nc3ccc(O)nc3)nc(N3CCOCC3)n2)c1
< 20 µM | CCC(CO)(CO)Nc1cc(-c2cccc(O)c2)nc(N2CCOCC2)n1

Target: PIK3CA (human) (UniProt P42336)
Test: Assessment of PIK3CA Kinase Activity Using One Step Solid Phase Assay

IC50 | SMILES
< 20 µM | Oc1cccc(-c2cc(NCCc3ccncc3)nc(N3CCOCC3)n2)c1
< 20 µM | O=[N+]([O-])c1ccc(N2CCN(c3cc(-c4cccc(O)c4)nc(N4CCOCC4)n3)CC2)cc1
< 20 µM | CS(=O)(=O)Nc1cccc(-c2cc(Nc3cccnc3)nc(N3CCOCC3)n2)c1
< 20 µM | Oc1ccc(F)c(-c2cc(Nc3cccnc3)nc(N3CCOCC3)n2)c1
< 20 µM | COc1cccc(-c2cc(N3CCOCC3)nc(N3CCOCC3)n2)c1
< 20 µM | Nc1cccc(-c2cc(Nc3cccnc3)nc(N3CCOCC3)n2)c1
< 20 µM | COCCNc1cc(-c2cccc(O)c2)nc(N2CCOCC2)n1
< 20 µM | Oc1cccc(-c2cc(N3CCN(c4ccccn4)CC3)nc(N3CCOCC3)n2)c1
< 20 µM | Oc1cccc(-c2cc(NCc3ccccn3)nc(N3CCOCC3)n2)c1
< 20 µM | CCOc1ccc(NC(C)=O)cc1Nc1cc(-c2cccc(O)c2)nc(N2CCOCC2)n1
< 20 µM | Oc1cccc(-c2cc(Nc3ncccn3)nc(N3CCOCC3)n2)c1
< 20 µM | CC(C)(C)C(=O)Oc1cccc(-c2cc(Nc3cccnc3)nc(N3CCOCC3)n2)c1
< 20 µM | Oc1cccc(-c2cc(Nc3cccnc3)nc(N3CCOCC3)n2)c1F
< 20 µM | Oc1cccc(-c2cc(NCc3ccncc3)nc(N3CCOCC3)n2)c1
< 20 µM | C[C@@H]1COC[C@H](C)N1c1cc(-c2cccc(O)c2)nc(N2CCOCC2)n1
< 20 µM | CC(=O)Oc1cccc(-c2cc(Nc3cccnc3)nc(N3CCOCC3)n2)c1
< 20 µM | COc1cccc(N2CCN(c3cc(-c4cccc(O)c4)nc(N4CCOCC4)n3)CC2)c1
< 20 µM | Oc1ccc(Br)c(-c2cc(Nc3cccnc3)nc(N3CCOCC3)n2)c1
< 20 µM | CC(C)C(N)C(=O)Oc1cccc(-c2cc(Nc3cccnc3)nc(N3CCOCC3)n2)c1 (stereo not given)
< 20 µM | CC(C)C(=O)Oc1cccc(-c2cc(Nc3cccnc3)nc(N3CCOCC3)n2)c1
< 20 µM | c1cc(OCCN2CCCCC2)cc(-c2cc(Nc3ccc4[nH]ncc4c3)nc(N3CCOCC3)n2)c1
< 20 µM | CCCC(=O)Oc1cccc(-c2cc(Nc3cccnc3)nc(N3CCOCC3)n2)c1
< 20 µM | COC(=O)Oc1cccc(-c2cc(Nc3cccnc3)nc(N3CCOCC3)n2)c1
< 20 µM | Oc1cccc(-c2cc(Nc3ccc(O)nc3)nc(N3CCOCC3)n2)c1
< 20 µM | CCC(CO)(CO)Nc1cc(-c2cccc(O)c2)nc(N2CCOCC2)n1
